Molecules are shown by their SMILES. Entries after “also recorded” stand apart in the source; their conditions may differ.

Holding throughout (assay type): cell-based, mouse
The subject of experiment [1] is C2C12 cells. In words: G-418 selection of untransfected and neo-transfected C2C12 cells. To be noted: 500 μg/ml G-418, 11 days. The procedure:
The Bcl-2 promoter-neo vector was prepared by using HindIII and MluI to excise the RSV promoter of pRSVneo (Gorman et al., Science 221:551-553 (1983)), after which an ˜2.6 kb PstI fragment of the human Bcl-2 promoter region (plasmid LB124; Chen et al., Mol. Cell. Biol. 15, 3840-3847 (1995)) was blunt-end ligated to the promotorless neo plasmid. C2C12 cells were transfected with Bcl-2-neo or pSV2neo using LIPOFECTAMINE™ (3:1 (w/w) 2,3-dioleyloxy-N-[2(spermine-carboxamido)ethyl]-N,N-dimethyl-1-propanaminiumtrifluoroacetate and dioleoyl phosphatidylethanolamine) (Gibco-BRL) and selected with G-418 (Dominov et al., Dev. Genet. 19, 108-118 (1996)).
To determine whether Bcl-2-expressing cells could function as stem cells, the differentiation of modified C2C12 cells that were selected based on their ability to express a Bcl-2 promoter fragment was examined. C2C12 cells were transfected with a plasmid in which expression of neomycin phosphotransferase was under the control of an ˜2.6 kb fragment of the human Bcl-2 promoter (Chen and Boxer, Mol. Cell. Biol. 15, 3840-3847 (1995)). From these transfections, four independent G-418-resistant lines (termed Bcl-2-neo cells) were isolated. […] In contrast, this treatment killed all untransfected C2C12 control cells and had no effect on C2C12 cells transfected with the ubiquitously expressed pSV2neo (FIG. 4). When transferred to fresh growth medium without G-418, the selected Bcl-2-neo cells resumed proliferation (FIG. 4) and were able to form multinucleate myotubes when switched to differentiation medium at confluence (not shown).

Experiment [2] relates to C2C12 cells. Put plainly: MTT assay of mitochondrial function (cell viability) after apoptosis induction. To be noted: serum-free medium with 0.5 μM staurosporine, compared to growth medium or 2% HS; 1-2 days.
Experimental: C2C12 and Sol8 cells were maintained in growth medium (DMEM with 15% fetal bovine serum, 2 mM L-glutamine, 10 mM HEPES, pH 7.4, and 100 U/ml penicillin) and induced to form myotubes in differentiation medium (growth medium with 2% horse serum in place of fetal bovine serum) (Yaffe et al., Nature 270, 725-727 (1977); Blau et al., Science 230, 758-766 (1985); and Montarras et al., New Biologist 3, 592-600 (1991)). […] Apoptosis was induced by transferring the cells to serum-free differentiation medium, with or without 0.5 μM staurosporine, and cell viability was measured by the MTT assay of mitochondrial function (Jacobsen et al., EMBO J. 13, 1899-1910 (1994)).
In this experiment, apoptosis was induced and Bcl-2 expression, cell viability, and differentiation capability were examined in cultures of myogenic cells.
Experiment [3] deals with C2C12 cells. In words: Percentage of Bcl-2-expressing cells after apoptosis induction (immunostaining). To be noted: serum-free medium with staurosporine; increased from less than 20%.
Experimental: Apoptosis was induced by transferring the cells to serum-free differentiation medium, with or without 0.5 μM staurosporine, and cell viability was measured by the MTT assay of mitochondrial function (Jacobsen et al., EMBO J. 13, 1899-1910 (1994)).
The hamster mAb, 3 F11, is specific for mouse Bcl-2 (Krajewski et al., Cancer Res. 53, 4701-4714 (1993)) and was used at 25 μg/ml.

`CN[C@@H]1[C@@H](O)[C@@H](O[C@@H]2[C@@H](O)[C@H](O[C@H]3O[C@H]([C@@H](C)O)[C@@H](O)[C@H](O)[C@H]3N)[C@@H](N)C[C@H]2N)OC[C@]1(C)O` [G-418]: in the experiment on C2C12 cells [1], the “effect on C2C12 cells carrying neo under SV40 promoter (pSV2neo)” value is “no effect”, the “survival of C2C12 cells carrying Bcl-2 promoter-neo fusion gene (Bcl-2-neo)” value is reported as “a portion of C2C12 cells that carry a Bcl-2 promoter-neo fusion gene (Bcl-2-neo) survived; also recorded: a portion of the cells remained viable” and the “survival of untransfected C2C12 cells (control)” value is “killed all”.

For the compound `CN[C@@H]1C[C@H]2O[C@@](C)([C@@H]1OC)n1c3ccccc3c3c4c(c5c6ccccc6n2c5c31)C(=O)NC4` [staurosporine], the “number of viable C2C12 cells” value with C2C12 cells [2] is reported as “greatly reduced; also recorded: decreased”. Also, the “percentage of muscle stem cells in the population” value with C2C12 cells [3] is 50-80%.

The record behind these values is patent US6337184B1, “Molecular marker for muscle stem cells” (priority 1997, dated 2002).
